Assay results published in article PMC12587552, “A nitrogen-containing diphyllin derivative C156-P1 exhibited broad-spectrum antiviral activity against Flaviviridae viruses by preventing endosomal acidification” (Antimicrobial Agents and Chemotherapy, 2025).
Like-named read-outs stand apart in the source and are kept apart here.

Experiments:
[1] = test system: Ad5-eGFP; type: cell-based, adenovirus type 5
[2] = test system: HCV; assay: microbe, parasite or virus in culture; type: cell-based, hepatitis C virus genotype 2a JFH1; settings: Hepatitis C virus, Huh-7, 72 h, read-out: EC50 against HCV
[3] = test system: ZIKV; assay: microbe, parasite or virus in culture; type: cell-based, ZIKV strain SZ01; settings: Zika virus, read-out: EC50 against ZIKV
[4] = test system: VSV-eGFP; assay: microbe, parasite or virus in culture; type: cell-based; settings: Vesicular stomatitis virus, A549, 24 h, read-out: EC50 against VSV-eGFP
[5] = test system: endosomal acidification in A549 cells; assay: Endosomal acidification, LysoSensor DND-189 flow cytometry; type: cell-based, human
[6] = test system: IFN-I response / TLR3; type: cell-based, human; settings: A549 cells, DENV-2 MOI = 2, 50 nM, 12-48 hpi
Experimental: Fig 6 C156-P1 restricted DENV-2 release from the endosome into the cytoplasm by suppressing the ATP6V0A2 protein. (A and C) A549 cells were infected with DENV-2 (MOI = 2) and treated with C156-P1 (50 nM), and the cells were harvested at 12, 24, 36, and 48 hpi. The mRNA levels of IFNB1, IFIT1, ISG15, OAS1, and TLR3 were quantitated by RT-qPCR. (B) A549 cells were infected with DENV-2 (MOI = 2) and incubated with C156-P1 (50 nM) for 24 h, after which the cell lysates were analyzed by Western blot (left panel), and band density analysis was performed (right panel). […] The intensity of FITC staining was determined using a CytoFLEX flow cytometer (left panel), and the mean fluorescence intensity (MFI) was calculated (right panel). […] The colocalization of E and Rab7A proteins was analyzed using Pearson’s correlation coefficients with the JACoP plugin for ImageJ software. […] (F) A549 cells were treated with DMSO, C156-P1 (100 nM), or PHY34 (100 nM) for 48 h, and ATP6V0A2 mRNA levels were quantified by RT-qPCR. […] The intensity of FITC staining was determined by a flow cytometer (left panel), and the MFI was calculated (right panel). […] The DENV-2 NS3 protein was determined by Western blot. […] The levels of ATP6V0A2 mRNA, intracellular viral RNA, DENV-2 NS3 protein, and extracellular virus titer were assessed at 48 hpi. […]

[7] = test system: DENV-1; assay: microbe, parasite or virus in culture; type: cell-based, DENV-1 clone D19044_7M; settings: Dengue virus, read-out: EC50 against DENV-1

COc1cc2c(OCC#N)c3c(c(-c4ccc5c(c4)OCO5)c2cc1OC)C(=O)OC3 [Compound C156-P1]
Mean fluorescence intensity (MFI) of Ad5-eGFP within the cells [1]: slightly increased
Number of Ad5-eGFP-positive cells versus DMSO [1]: no significant difference
EC50 [2]: 5.13 nM
EC50 ([3]; A549, 48 h): 1.01 nM
EC50 ([3]; Vero, 48 h): 0.76 nM
EC50 [4]: 9.27 nM
Endosomal acidification (FITC intensity of LysoSensor DND-189) [5]: significantly decreased the MFI of FITC in a dose-dependent manner
TLR3 mRNA expression induced by DENV-2 [6]: significantly reduced the expression of TLR3 mRNA
mRNA levels of IFNB1 and ISGs (IFIT1, ISG15, OAS1) induced by DENV-2 [6]: apparently suppressed
EC50 ([7]; DENV1, A549, 48 h): 8.38 nM
EC50 ([7]; DENV1, Vero, 48 h): 5.76 nM
